Legend:
[1] = test system: Normal human neonatal epidermal keratinocytes (NHEK); assay: Epidermal keratinocyte proliferation promotive action test (MTT); assay type: cell-based; details: 3 days, A/B×100 vs no sample
Description: Normal human neonatal epidermal keratinocytes (NHEK) were cultured using normal human epidermal keratinocyte growth medium (KGM), and then the cells were collected by a trypsin treatment. The collected cells were diluted with KGM to a cell density of 3.0×10^4 cells/mL, then seeded with 100 μL per well on a collagen-coated 96-well plate, and cultured overnight. After the culturing was completed, 100 μL of the test sample (Sample 1, see Table 12 below for the final concentration) dissolved in KGM was added to each well, and culturing was performed for 3 days. As a control, culturing was performed in the same manner using KGM to which no sample was added.
The epidermal keratinocyte proliferation promotive action was measured using the MTT assay method. After culturing for 3 days, the medium was removed, and 100 μL of MTT dissolved at a final concentration of 0.4 mg/mL in PBS(−) buffer solution was added to each well. […] After extraction, the absorbance at a wavelength of 570 nm was measured. At the same time, the absorbance at a wavelength of 650 nm was measured as turbidity, and the difference between the two was determined as the production amount of blue formazan. From the obtained results, the epidermal keratinocyte proliferation promotion rate (%) was calculated using the following equation. […]

[2] = test system: CLDN4 mRNA; assay: Claudin-4 (CLDN4) mRNA expression promotive action test; assay type: cell-based, human; details: 100 μmol/L; NHEK, 24 hours, corrected with GAPDH
Description: Normal human neonatal epidermal keratinocytes (NHEK) were precultured using normal human epidermal keratinocyte growth medium (KGM), and the cells were collected by a trypsin treatment. The collected cells were diluted with KGM to a cell density of 15×10^4 cells/mL, then seeded with 2 mL portions in a 6-well plate (30×10^4 cells/well), and cultured overnight under conditions of 37° C. and 5% CO2. After culturing, the medium was replaced with normal human epidermal keratinocyte basal medium (KBM, the above KGM without addition of growth additives (hEGF, BPE, insulin, antibacterial agents, hydrocortisone)), and culturing was further performed for 24 hours.
After culturing for 24 hours, the medium was removed, and 2 mL of the test sample (Sample 1, see Table 20 below for final concentrations) dissolved in KBM was added to each well, and culturing was performed under conditions of 37° C. and 5% CO2 for 24 hours. As a control, culturing was performed in the same manner using KBM to which no sample was added. After culturing, the medium was removed, total RNA was extracted using ISOGEN II (available from NIPPON GENE CO., LTD.), each RNA amount was measured using a spectrophotometer, and the total RNA was prepared so as to be 150 ng/μL.
For CLDN4 and GAPDH as an internal standard, the expression levels of mRNA were measured using the above total RNA as a template. […]

[3] = test system: Rat basophil leukemia cells (RBL-2H3); assay: Hexosaminidase release suppressive action test; assay type: cell-based; details: 500 μmol/L; RBL-2H3, DNP-specific IgE / DNP-BSA
Description: Rat basophil leukemia cells (RBL-2H3) were cultured using spinner modified Eagle's minimum essential medium (S-MEM) containing 15% FBS, and then the cells were collected by a trypsin treatment. The collected cells were diluted with S-MEM containing 15% FBS to a cell density of […], DNP-specific IgE was added to a final concentration of 0.5 μg/mL, and the cells were seeded with 100 μL per well in a 96-well plate and cultured overnight.
After culturing, the medium was removed and the cells were washed twice with 100 μL of Shiraganian buffer solution. […]
After the reaction was completed, 250 μL of 0.1 mol/L Na2CO3/NaHCO3 was added to each well, the absorbance at wavelengths of 415 nm and 650 nm was measured, and the value obtained by subtracting the absorbance at 650 nm from the absorbance at 415 nm was adopted as the corrected value. From the obtained measurement results, the hexosaminidase release suppression rate (%) was calculated using the following equation.
Terms in the equation represent the following respective ones. • A: Absorbance at wavelength 415-650 nm without sample addition • B: Absorbance at wavelength 415-650 nm with test sample addition

SMILES	Epidermal keratinocyte proliferation promotion rate ([1]; 25 μmol/L) [%]	Epidermal keratinocyte proliferation promotion rate ([1]; 100 μmol/L) [%]	CLDN4 mRNA expression promotion rate [2] [%]	Hexosaminidase release suppression rate [3] [%]
O=C(O)CCc1ccc(O)c(O)c1 [Sample 1, 3,4-Dihydroxyhydrocinnamic acid]	138.3	152.1	489.7	–
O=C(O)CCc1ccc(O)cc1 [Sample 2, 3-(4-Hydroxyphenyl)propionic acid]	–	–	–	19.3
